Reference: ChEMBL document CHEMBL1201862, “PubChem BioAssay data set” (2004)
Where “and” joins values, the source holds several entries; their conditions need not be identical. Equal values may be shown once. Calls of active or inactive are those of the source.

How the values were obtained:
[1] = biological target: G-protein coupled receptor 55 (Homo sapiens, UniProt Q9Y2T6); test: GPR55 agonists via beta-arrestin recruitment, primary screen, imaging, U2OS cells, beta-arrestin-GFP redistribution (AID 1961); type: functional
Leucine aminopeptidase = biological target: T1, Leucine aminopeptidase (Plasmodium falciparum 3D7, UniProt Q8IL11); test: P. falciparum M17LAP inhibitors, primary screen, biochemical, fluorogenic H-Leu-NHMec substrate, 1536-well (AID 1619); type: functional
T1 sequence (Q8IL11 whole entry): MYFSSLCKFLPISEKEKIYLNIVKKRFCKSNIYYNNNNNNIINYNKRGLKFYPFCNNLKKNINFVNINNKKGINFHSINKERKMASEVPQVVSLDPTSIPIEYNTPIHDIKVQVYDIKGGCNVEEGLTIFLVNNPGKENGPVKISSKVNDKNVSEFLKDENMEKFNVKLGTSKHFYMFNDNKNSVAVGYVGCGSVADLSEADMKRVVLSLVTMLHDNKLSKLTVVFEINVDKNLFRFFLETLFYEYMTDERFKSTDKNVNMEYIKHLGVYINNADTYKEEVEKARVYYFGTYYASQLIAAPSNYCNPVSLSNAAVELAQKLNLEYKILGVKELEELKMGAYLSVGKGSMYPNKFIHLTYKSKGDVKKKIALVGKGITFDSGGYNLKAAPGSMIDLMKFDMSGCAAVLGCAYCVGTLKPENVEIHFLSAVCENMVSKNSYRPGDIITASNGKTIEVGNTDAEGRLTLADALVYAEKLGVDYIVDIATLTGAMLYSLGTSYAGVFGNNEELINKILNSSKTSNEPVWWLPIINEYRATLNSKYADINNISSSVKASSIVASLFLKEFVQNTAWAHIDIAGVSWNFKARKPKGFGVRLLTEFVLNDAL

Aminopeptidase N = biological target: T2, Aminopeptidase N (Plasmodium falciparum FcB1/Columbia, UniProt O96935); test: P. falciparum M1AAP inhibitors, biochemical, fluorogenic H-Leu-NHMec substrate, 1536-well (AID 1445); set-up: species or system Plasmodium falciparum 3D7, 3D7
T2 sequence (O96935 whole entry): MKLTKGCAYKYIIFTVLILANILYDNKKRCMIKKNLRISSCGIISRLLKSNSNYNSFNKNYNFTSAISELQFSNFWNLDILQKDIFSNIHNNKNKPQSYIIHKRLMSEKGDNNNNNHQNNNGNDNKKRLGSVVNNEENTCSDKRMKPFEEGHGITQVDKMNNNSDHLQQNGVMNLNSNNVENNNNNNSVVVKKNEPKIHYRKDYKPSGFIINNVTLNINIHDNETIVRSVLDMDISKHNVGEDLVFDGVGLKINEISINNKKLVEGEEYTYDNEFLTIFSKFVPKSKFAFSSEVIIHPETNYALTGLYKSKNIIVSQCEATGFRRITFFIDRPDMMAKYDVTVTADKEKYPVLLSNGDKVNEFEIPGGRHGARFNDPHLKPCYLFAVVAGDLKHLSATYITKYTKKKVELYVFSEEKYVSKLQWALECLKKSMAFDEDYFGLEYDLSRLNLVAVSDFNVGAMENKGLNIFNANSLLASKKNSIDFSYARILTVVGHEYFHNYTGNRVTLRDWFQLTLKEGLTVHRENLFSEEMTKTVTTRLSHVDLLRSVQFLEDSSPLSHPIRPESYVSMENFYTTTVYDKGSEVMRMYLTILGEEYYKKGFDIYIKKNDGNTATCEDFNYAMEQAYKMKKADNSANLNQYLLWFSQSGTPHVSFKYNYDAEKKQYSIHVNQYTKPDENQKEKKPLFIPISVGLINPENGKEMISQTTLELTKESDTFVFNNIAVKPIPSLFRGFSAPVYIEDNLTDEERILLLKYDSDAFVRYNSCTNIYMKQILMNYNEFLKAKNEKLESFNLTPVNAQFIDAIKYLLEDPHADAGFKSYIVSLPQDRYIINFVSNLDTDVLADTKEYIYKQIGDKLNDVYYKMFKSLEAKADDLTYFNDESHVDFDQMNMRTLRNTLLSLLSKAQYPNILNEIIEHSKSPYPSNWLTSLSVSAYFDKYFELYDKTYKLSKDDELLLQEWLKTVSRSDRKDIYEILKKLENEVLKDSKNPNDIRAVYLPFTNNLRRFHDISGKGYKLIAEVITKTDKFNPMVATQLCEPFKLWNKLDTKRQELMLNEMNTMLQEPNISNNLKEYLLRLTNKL

Large T antigen = Large T antigen (Simian virus 40, UniProt P03070); type: functional, Betapolyomavirus macacae;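 note: Confirmatory-stage PubChem screen for compounds that inhibit SV40 T antigen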
[2] = biological target: Induced myeloid leukemia cell differentiation protein Mcl-1 (Homo sapiens, UniProt Q07820); type: functional
Genome polyprotein = Genome polyprotein (dengue virus type 2, UniProt P29990); test: Dengue-2 NS5 methyltransferase inhibitors, primary screen, biochemical, confirmation dose response (AID 588689); type: functional
[3] = biological target: T3, Zinc finger protein mex-5 (Caenorhabditis elegans, UniProt Q9XUB2); test: MEX-5/TCR-2 RNA interaction inhibitors, dose response, biochemical, C. elegans, fluorescence polarization (AID 1960)
T3 sequence (Q9XUB2 whole entry): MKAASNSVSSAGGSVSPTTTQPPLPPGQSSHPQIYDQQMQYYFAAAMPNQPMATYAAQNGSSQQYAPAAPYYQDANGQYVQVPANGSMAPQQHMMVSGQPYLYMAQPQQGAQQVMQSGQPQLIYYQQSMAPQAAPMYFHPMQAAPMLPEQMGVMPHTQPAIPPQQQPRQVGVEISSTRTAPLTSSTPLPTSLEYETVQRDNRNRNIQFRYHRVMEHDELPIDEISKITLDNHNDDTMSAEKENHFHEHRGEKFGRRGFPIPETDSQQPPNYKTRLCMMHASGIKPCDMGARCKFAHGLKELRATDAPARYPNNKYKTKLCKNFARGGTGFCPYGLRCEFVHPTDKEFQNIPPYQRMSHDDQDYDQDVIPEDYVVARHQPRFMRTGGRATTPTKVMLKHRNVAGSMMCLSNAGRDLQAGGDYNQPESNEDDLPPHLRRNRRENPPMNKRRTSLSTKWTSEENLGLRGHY

Nonstructural protein 1 = Nonstructural protein 1 (Influenza A virus, UniProt Q194T2); type: functional, Influenza A virus (A/California/07/2009(H1N1))
[4] = biological target: T4, RNA-binding protein pos-1 (Caenorhabditis elegans, UniProt G5EF15); test: inhibitors of POS-1/mex-3 RNA binding, dose response, biochemical, fluorescence polarization (AID 1964);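 note: purified POS-1 fused to maltose binding protein made in E. coli; potency of compounds blocking POS-1 binding to fluorescent RNA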
T4 sequence (G5EF15 whole entry): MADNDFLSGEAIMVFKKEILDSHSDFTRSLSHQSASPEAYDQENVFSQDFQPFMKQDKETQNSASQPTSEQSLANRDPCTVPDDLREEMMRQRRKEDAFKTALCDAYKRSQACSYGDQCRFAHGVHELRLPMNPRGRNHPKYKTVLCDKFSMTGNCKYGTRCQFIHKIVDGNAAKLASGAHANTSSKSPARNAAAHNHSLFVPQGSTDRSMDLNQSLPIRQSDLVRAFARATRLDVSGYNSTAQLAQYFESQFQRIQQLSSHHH

[5] = biological target: T5, Alkaline phosphatase, tissue-nonspecific isozyme (Homo sapiens, UniProt P05186); test: human TNAP enzyme inhibitors, SAR follow-up, biochemical, luminescent, dose response (AID 1056)
T5 sequence (P05186 whole entry): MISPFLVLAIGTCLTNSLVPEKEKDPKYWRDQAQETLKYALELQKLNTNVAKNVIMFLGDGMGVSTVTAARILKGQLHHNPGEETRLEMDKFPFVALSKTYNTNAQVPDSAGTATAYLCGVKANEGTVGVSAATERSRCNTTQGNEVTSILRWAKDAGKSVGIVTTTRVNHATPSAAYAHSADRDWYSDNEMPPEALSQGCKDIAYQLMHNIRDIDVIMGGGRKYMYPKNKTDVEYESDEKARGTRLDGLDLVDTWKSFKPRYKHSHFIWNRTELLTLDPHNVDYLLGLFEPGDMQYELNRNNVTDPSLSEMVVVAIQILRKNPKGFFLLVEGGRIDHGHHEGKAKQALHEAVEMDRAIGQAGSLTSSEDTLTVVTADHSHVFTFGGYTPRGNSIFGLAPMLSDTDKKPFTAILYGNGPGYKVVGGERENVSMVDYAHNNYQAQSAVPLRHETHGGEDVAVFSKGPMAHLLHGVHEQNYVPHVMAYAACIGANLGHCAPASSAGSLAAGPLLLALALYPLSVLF

[6] = biological target: Glyceraldehyde-3-phosphate dehydrogenase (Homo sapiens, UniProt P04406)
[7] = biological target: Alkaline phosphatase, placental type (Homo sapiens, UniProt P05187); test: PLAP enzyme inhibitors, confirmation, biochemical, luminescence (AID 1512); type: functional
Hexokinase = biological target: T6, Hexokinase (Trypanosoma brucei, UniProt Q38C41); test: Confirmation assay for inhibitors of Trypanosoma brucei hexokinase 1-Analogue-first series. [Related pubchem assays (depositor defined):AID1430, AID1632, AID2516, AID2560, AID2579, AID2600, AID449725, AID492951]; type: functional
T6 sequence (Q38C41 whole entry): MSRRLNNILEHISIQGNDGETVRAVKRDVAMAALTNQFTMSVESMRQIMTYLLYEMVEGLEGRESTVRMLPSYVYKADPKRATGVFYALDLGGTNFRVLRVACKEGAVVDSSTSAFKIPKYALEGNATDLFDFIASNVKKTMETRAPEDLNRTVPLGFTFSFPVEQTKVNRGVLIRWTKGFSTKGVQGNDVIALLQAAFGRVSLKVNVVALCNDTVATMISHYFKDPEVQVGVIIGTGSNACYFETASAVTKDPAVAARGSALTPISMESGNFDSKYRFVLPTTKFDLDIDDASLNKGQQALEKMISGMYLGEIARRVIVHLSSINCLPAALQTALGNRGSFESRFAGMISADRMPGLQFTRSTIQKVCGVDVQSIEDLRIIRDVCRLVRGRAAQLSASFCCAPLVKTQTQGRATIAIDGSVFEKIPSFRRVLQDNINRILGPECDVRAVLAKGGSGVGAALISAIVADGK

[8] = biological target: T7, DNA dC->dU-editing enzyme APOBEC-3G (Homo sapiens, UniProt Q9HC16); type: functional
[9] = biological target: T8, DNA dC->dU-editing enzyme APOBEC-3A (Homo sapiens, UniProt P31941); test: Dose Response confirmation of small molecule APOBEC3A DNA Deaminase Inhibitors via a fluorescence-based single-stranded DNA deaminase assay. [Related pubchem assays (depositor defined):AID493011, AID493024]; type: functional
[10] = biological target: T7, DNA dC->dU-editing enzyme APOBEC-3G; test: Dose Response confirmation of small molecule APOBEC3G DNA Deaminase Inhibitors via a fluorescence-based single-stranded DNA deaminase assay. [Related pubchem assays (depositor defined):AID493012, AID493028]; type: functional
[11] = biological target: T8, DNA dC->dU-editing enzyme APOBEC-3A; test: APOBEC3A DNA deaminase inhibitors, dose response, biochemical (AID 504722); type: functional
SUMO-activating enzyme [12] = biological target: T9, SUMO-activating enzyme (Homo sapiens, UniProt Q9UBT2); test: SUMOylation inhibitor hit validation, confirmation, SUMOylation inhibitor project, biochemical, AlphaScreen (AID 2018); type: functional
SUMO-activating enzyme [13] = biological target: T9, SUMO-activating enzyme; test: inhibitors of in vitro SUMOylation cascade, primary screen, biochemical, HTRF, uHTS (AID 2006); type: protein-complex assay
[14] = biological target: T10, Carboxy-terminal domain RNA polymerase II polypeptide A small phosphatase 1 (Homo sapiens, UniProt Q9GZU7); test: inhibitors of CTDSP1, concentration-response testing, biochemical assay, absorbance-based, actives from ultra-high-throughput screening (AID 540297); type: functional
T10 sequence (Q9GZU7 whole entry): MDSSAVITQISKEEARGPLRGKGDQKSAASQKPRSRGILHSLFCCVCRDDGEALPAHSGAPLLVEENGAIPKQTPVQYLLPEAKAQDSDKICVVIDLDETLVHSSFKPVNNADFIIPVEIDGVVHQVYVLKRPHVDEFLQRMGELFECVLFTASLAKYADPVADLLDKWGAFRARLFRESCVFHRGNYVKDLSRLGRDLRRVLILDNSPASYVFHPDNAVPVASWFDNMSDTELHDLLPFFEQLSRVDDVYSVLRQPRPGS

## Cc1ccc(-c2nc3ccccc3[nH]2)cc1NC(=S)NC(=O)c1ccccc1Br
[1]
  EC50: 2.9 µM (active)

## O=C(O)c1ccccc1NS(=O)(=O)c1ccc(NNC(=S)Nc2ccc(OC(F)F)cc2)c([N+](=O)[O-])c1
Leucine aminopeptidase
  IC50: 5.33 µM (active)
Aminopeptidase N
  IC50: 17.3 µM (active)
Large T antigen
  IC50: 29.8 µM (active)
[2]
  IC50: 2.95 µM (active)
Genome polyprotein
  IC50: 18.5 µM (active)
[3]
  EC50: 5.57 µM (active)
Nonstructural protein 1
  IC50: 13 µM (active)
[4]
  EC50: 7.38 µM (active)

## O=C1CC(c2ccccc2)Cc2[nH]ncc21 (stereo not drawn)
[5]
  IC50: > 100 µM (inactive)
[6]
  IC50: > 100 µM (not active)
[7]
  IC50: > 100 µM (inactive)

## COC(=O)c1cc(-c2ccc(Cl)cc2Cl)n[nH]1
[5]
  IC50: 264 nM (active) and 315 nM (active)
[6]
  IC50: > 100 µM (not active)
[7]
  IC50: > 100 µM (inactive)

## CC(C)(C)OC(=O)NC1(C(Cl)(Cl)Cl)Oc2ccccc2O1
[5]
  IC50: > 100 µM (inactive)
[7]
  IC50: > 100 µM (inactive)

## COc1ccc(C(=O)Nc2ccccc2-c2nn[nH]n2)cc1
Hexokinase
  IC50: > 25 µM (inactive)

## CCc1nc(CNC(=O)c2cc(OC)c(OC)c(OC)c2)no1
[8]
  IC50: 3.11 µM (active)
[9]
  IC50: 2.24 µM (active)

## Sc1nc(-c2ccccc2)cn1/N=C/c1cccnc1
[10]
  IC50: 4.77 µM (active)
[11]
  IC50: > 100 µM (inactive)

## COc1cccc(C(=O)NCc2nnc(S)n2-c2cccc(C)c2)c1
[10]
  IC50: 12.8 µM (active)
[11]
  IC50: > 100 µM (inactive)

## COc1ccc(C)c2sc(NC(=O)c3cccc(N4C(=O)CCC4=O)c3)nc12
SUMO-activating enzyme [12]
  IC50: 9.99 µM (active)
SUMO-activating enzyme [13]
  IC50: 6.1 µM (active)

## COc1ccc(-c2cc(C(=O)Nc3cc(S(=O)(=O)N4CCOCC4)ccc3N3CCOCC3)c3ccccc3n2)cc1
[1]
  EC50: 1.68 µM (active)

## Cc1cc(Br)ccc1NC(=O)CN(C)C(=O)Cn1c(=O)cnc2ccccc21
[8]
  IC50: 6.85 µM (active)
[14]
  IC50: 7.57 µM (active)
[9]
  IC50: 5.76 µM (active)

## Cc1ccc(C)c(NC(=O)Cn2cc(C(=O)C3CC3)c3ccccc32)c1
[8]
  IC50: 6.11 µM (active)
[9]
  IC50: 6.88 µM (active)

## COc1ccc(C(=O)Nc2cc(Cl)ccc2C(=O)O)cc1OC
Hexokinase
  IC50: 15.5 µM (active)
